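Briefly, cells in 96-well plates were exposed to five compound concentrations for 48 h, and endpoints were estimated by linear interpolation. Here, GI50 denotes the concentration required for 50% inhibition of growth.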 Calls of active or inactive are those of the source. Rule as the data show it: active = GI50 up to about 1.1 µM and inactive = higher.
Legend:
Assay in all cases: NCI tumour cell line growth inhibition, 48 h
MOLT-4 = tested on: MOLT-4
KM-20L2 = tested on: KM-20L2
HT-29 = tested on: HT-29
RPMI-8226 = tested on: RPMI-8226
DMS-114 = tested on: DMS-114
K562 = tested on: K562
UACC-257 = tested on: UACC-257
CAKI-1 = tested on: CAKI-1
COLO 205 = tested on: COLO 205
M19-MEL = tested on: M19-MEL
A549 = tested on: A549
SK-MEL-2 = tested on: SK-MEL-2
SK-MEL-28 = tested on: SK-MEL-28
HOP-92 = tested on: HOP-92
SNB-78 = tested on: SNB-78
SK-OV-3 = tested on: SK-OV-3
IGROV-1 = tested on: IGROV-1
HL-60 = tested on: HL-60
DMS-273 = tested on: DMS-273
DLD-1 = tested on: DLD-1
OVCAR-4 = tested on: OVCAR-4
Malme-3M = tested on: Malme-3M
HCT-116 = tested on: HCT-116
RXF 631 = tested on: RXF 631
SNB-19 = tested on: SNB-19
CCRF-CEM = tested on: CCRF-CEM
NCI-H23 = tested on: NCI-H23
RXF 393 = tested on: RXF 393
M14 = tested on: M14
HCT-15 = tested on: HCT-15
SW-620 = tested on: SW-620
HOP-62 = tested on: HOP-62
LOX IMVI = tested on: LOX IMVI
U-251 = tested on: U-251
XF498 = tested on: XF498
SN12C = tested on: SN12C
EKVX = tested on: EKVX
OVCAR-8 = tested on: OVCAR-8
SNB-75 = tested on: SNB-75
OVCAR-3 = tested on: OVCAR-3
SK-MEL-5 = tested on: SK-MEL-5
TK-10 = tested on: TK-10
UO-31 = tested on: UO-31
UACC-62 = tested on: UACC-62
SF-295 = tested on: SF-295
ACHN = tested on: ACHN
HOP-18 = tested on: HOP-18
NCI-H460 = tested on: NCI-H460
KM12 = tested on: KM12
HCC 2998 = tested on: HCC 2998
SF-539 = tested on: SF-539
LXFL 529 = tested on: LXFL 529
OVCAR-5 = tested on: OVCAR-5
786-0 = tested on: 786-0
SR = tested on: SR
NCI-H226 = tested on: NCI-H226
A498 = tested on: A498
SF-268 = tested on: SF-268
NCI-H522 = tested on: NCI-H522

CCOC(=O)Cc1cc(OC)c(OC)cc1/C(Cl)=C(\C=O)c1ccc(OC)c(OC)c1
GI50 (MOLT-4): 16.9 µM (inactive) | GI50 (KM-20L2): 15.3 µM (inactive) | GI50 (HT-29): 15.8 µM (inactive) | GI50 (RPMI-8226): 9.75 µM (inactive) | GI50 (DMS-114): 18.2 µM (inactive) | GI50 (K562): 17.2 µM (inactive) | GI50 (UACC-257): 18.9 µM (inactive) | GI50 (CAKI-1): 29.4 µM (inactive) | GI50 (COLO 205): 21.8 µM (inactive) | GI50 (M19-MEL): 22.6 µM (inactive) | GI50 (A549): 16.9 µM (inactive) | GI50 (SK-MEL-2): 19.7 µM (inactive) | GI50 (SK-MEL-28): 24.2 µM (inactive) | GI50 (HOP-92): 1 µM (active) | GI50 (SNB-78): 22.3 µM (inactive) | GI50 (SK-OV-3): 37.1 µM (inactive) | GI50 (IGROV-1): 28.6 µM (inactive) | GI50 (HL-60): 17.3 µM (inactive) | GI50 (DMS-273): 19.5 µM (inactive) | GI50 (DLD-1): 16.3 µM (inactive) | GI50 (OVCAR-4): 18.5 µM (inactive) | GI50 (Malme-3M): 27.4 µM (inactive) | GI50 (HCT-116): 14.4 µM (inactive) | GI50 (RXF 631): 20.3 µM (inactive) | GI50 (SNB-19): 34.4 µM (inactive) | GI50 (CCRF-CEM): > 10 µM (inactive) | GI50 (NCI-H23): 19.6 µM (inactive) | GI50 (RXF 393): 57.8 µM (inactive) | GI50 (M14): 16.1 µM (inactive) | GI50 (HCT-15): 17.5 µM | GI50 (SW-620): 22.9 µM (inactive) | GI50 (HOP-62): 9.35 µM (inactive) | GI50 (LOX IMVI): 17.9 µM (inactive) | GI50 (U-251): 17.5 µM (inactive) | GI50 (XF498): 20 µM (inactive) | GI50 (SN12C): 15.2 µM (inactive) | GI50 (EKVX): 22.1 µM (inactive) | GI50 (OVCAR-8): 25.5 µM (inactive) | GI50 (SNB-75): 32.1 µM (inactive) | GI50 (OVCAR-3): 13.8 µM (inactive) | GI50 (SK-MEL-5): 17.1 µM (inactive) | GI50 (TK-10): 26 µM (inactive) | GI50 (UO-31): 26.1 µM (inactive) | GI50 (UACC-62): 16.4 µM (inactive) | GI50 (SF-295): 15.2 µM (inactive) | GI50 (ACHN): 20.6 µM (inactive) | GI50 (HOP-18): 28.7 µM (inactive) | GI50 (NCI-H460): 3.4 µM (inactive)

CN1CC(=O)N(C)c2[nH]cnc2C1=O
GI50 (MOLT-4): > 100 µM (inactive) | GI50 (KM12): > 100 µM (inactive) | GI50 (HT-29): > 100 µM (inactive) | GI50 (RPMI-8226): > 100 µM (inactive) | GI50 (DMS-114): > 100 µM (inactive) | GI50 (HCC 2998): > 100 µM (inactive) | GI50 (K562): > 100 µM (inactive) | GI50 (SF-539): > 100 µM (inactive) | GI50 (COLO 205): > 100 µM (inactive) | GI50 (M19-MEL): > 100 µM (inactive) | GI50 (A549): > 100 µM (inactive) | GI50 (LXFL 529): > 100 µM (inactive) | GI50 (SK-MEL-28): > 100 µM (inactive) | GI50 (OVCAR-5): > 100 µM (inactive) | GI50 (SNB-78): > 100 µM (inactive) | GI50 (SK-OV-3): > 100 µM (inactive) | GI50 (IGROV-1): > 100 µM (inactive) | GI50 (HL-60): > 100 µM (inactive) | GI50 (DMS-273): > 100 µM (inactive) | GI50 (DLD-1): > 100 µM (inactive) | GI50 (OVCAR-4): > 100 µM (inactive) | GI50 (Malme-3M): > 100 µM (inactive) | GI50 (RXF 631): > 100 µM (inactive) | GI50 (SNB-19): > 100 µM (inactive) | GI50 (CCRF-CEM): > 100 µM (inactive) | GI50 (786-0): > 100 µM (inactive) | GI50 (NCI-H23): > 100 µM (inactive) | GI50 (RXF 393): > 100 µM (inactive) | GI50 (M14): > 100 µM (inactive) | GI50 (HCT-15): > 100 µM | GI50 (SW-620): > 100 µM (inactive) | GI50 (SR): > 100 µM (inactive) | GI50 (LOX IMVI): > 100 µM (inactive) | GI50 (NCI-H226): > 100 µM (inactive) | GI50 (U-251): > 100 µM (inactive) | GI50 (XF498): 80.9 µM (inactive) | GI50 (SN12C): > 100 µM (inactive) | GI50 (A498): > 100 µM (inactive) | GI50 (EKVX): > 100 µM (inactive) | GI50 (OVCAR-8): > 100 µM (inactive) | GI50 (SNB-75): > 100 µM (inactive) | GI50 (OVCAR-3): > 100 µM (inactive) | GI50 (SK-MEL-5): > 100 µM (inactive) | GI50 (TK-10): > 100 µM (inactive) | GI50 (UO-31): > 100 µM (inactive) | GI50 (UACC-62): > 100 µM (inactive) | GI50 (SF-268): > 100 µM (inactive) | GI50 (SF-295): > 100 µM (inactive) | GI50 (ACHN): > 100 µM (inactive) | GI50 (HOP-18): > 100 µM (inactive) | GI50 (NCI-H460): > 100 µM (inactive)

O=C1c2cccc(O)c2C(=O)c2c(O)cc(CO)cc21 [ALOE-EMODIN]
GI50 (MOLT-4): 40.8 µM (inactive) | GI50 (KM-20L2): 39.4 µM (inactive) | GI50 (KM12): 40.2 µM (inactive) | GI50 (HT-29): 30.9 µM (inactive) | GI50 (RPMI-8226): 31.5 µM (inactive) | GI50 (DMS-114): 28.2 µM (inactive) | GI50 (HCC 2998): 83.9 µM (inactive) | GI50 (UACC-257): 49.8 µM (inactive) | GI50 (CAKI-1): 49.1 µM (inactive) | GI50 (COLO 205): 31.7 µM (inactive) | GI50 (A549): 40 µM (inactive) | GI50 (SK-MEL-2): 91.8 µM (inactive) | GI50 (LXFL 529): 56 µM (inactive) | GI50 (SK-MEL-28): > 100 µM (inactive) | GI50 (HOP-92): > 100 µM (inactive) | GI50 (OVCAR-5): > 100 µM (inactive) | GI50 (SNB-78): > 100 µM (inactive) | GI50 (SK-OV-3): > 100 µM (inactive) | GI50 (HL-60): 24.8 µM (inactive) | GI50 (DMS-273): 27.5 µM (inactive) | GI50 (DLD-1): 32.5 µM (inactive) | GI50 (OVCAR-4): 77.8 µM (inactive) | GI50 (Malme-3M): 20.8 µM (inactive) | GI50 (HCT-116): 30.1 µM (inactive) | GI50 (RXF 631): 67.5 µM (inactive) | GI50 (SNB-19): 49.1 µM (inactive) | GI50 (CCRF-CEM): 31.3 µM (inactive) | GI50 (NCI-H23): > 100 µM (inactive) | GI50 (RXF 393): > 100 µM (inactive) | GI50 (M14): 38.4 µM (inactive) | GI50 (HCT-15): 28.1 µM | GI50 (SW-620): 30.5 µM (inactive) | GI50 (HOP-62): > 100 µM (inactive) | GI50 (SR): 32.9 µM (inactive) | GI50 (LOX IMVI): 26.2 µM (inactive) | GI50 (NCI-H226): > 100 µM (inactive) | GI50 (U-251): > 100 µM (inactive) | GI50 (XF498): > 100 µM (inactive) | GI50 (SN12C): 35.4 µM (inactive) | GI50 (A498): 74.3 µM (inactive) | GI50 (SNB-75): 72.8 µM (inactive) | GI50 (SK-MEL-5): 15.8 µM (inactive) | GI50 (TK-10): > 100 µM (inactive) | GI50 (NCI-H522): 22.8 µM (inactive) | GI50 (SF-268): 52.4 µM (inactive) | GI50 (SF-295): 96.2 µM (inactive) | GI50 (ACHN): 32.7 µM (inactive) | GI50 (HOP-18): > 100 µM (inactive) | GI50 (NCI-H460): 29.4 µM (inactive)

From ChEMBL document CHEMBL1201862, “PubChem BioAssay data set” (2004)
